For 13 molecules, TGI results are on record in PubChem BioAssay (NCI).

Some test systems named below: HCT-15 colon; HOP-92 NSCLC; IGROV1 ovarian; MALME-3M melanoma; MOLT-4 leukemia; NCI-H460 lung; OVCAR-5 ovarian; RXF 393 renal; SK-MEL-2 melanoma; SK-OV-3 ovarian; SW-620 colon; A498 renal.
Experiment in all cases: growth of human tumour cells (NCI), 48 h

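Each compound was tested at five concentrations against cells in 96-well plates for 48 hours. At the TGI there is no net growth.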

Consider `C=CCOC(=O)C1=C(C)NC2=N[C@H](CCCCCCCCC)C[C@@H]3CCC1N23` (some centres not stated), for which the TGI in the experiment with HCT-15 colon is 56.2 µM; with HOP-92 NSCLC, 38 µM; in the experiment on IGROV1 ovarian it was 49.5 µM; in the experiment on MALME-3M melanoma, 35.7 µM; in the experiment on MOLT-4 leukemia, more than 100 µM; in the experiment with NCI-H460 lung, 72.6 µM. The TGI in the experiment on OVCAR-5 ovarian was 48.2 µM; in the experiment with RXF 393 renal, 36 µM; in the experiment with SK-MEL-2 melanoma it was 36.5 µM; in the experiment on SK-OV-3 ovarian it was 75.2 µM; with SW-620 colon it was more than 100 µM.

Consider `Cc1cc(=O)oc2cc(OCC(O)COC(C)C)ccc12` (configuration not stated), for which the TGI with HCT-15 colon, with HOP-92 NSCLC, in the experiment on IGROV1 ovarian, in the experiment on MALME-3M melanoma, in the experiment on MOLT-4 leukemia and with NCI-H460 lung was more than 100 µM in each case. Also, the TGI in the experiment with OVCAR-5 ovarian, in the experiment on SK-OV-3 ovarian and in the experiment on SW-620 colon was more than 100 µM throughout.

Consider `CC(=O)O[C@H]1C(=O)[C@@]2(C)[C@H]([C@H](OC(=O)c3ccccc3)[C@]3(O)C[C@H](OC(=O)[C@H](O)[C@@H](NC(=O)c4ccco4)c4ccccc4)C(C)=C1C3(C)C)[C@]1(OC(C)=O)CO[C@@H]1C[C@@H]2O`, for which the TGI in the experiment with A498 renal, in the experiment on HCT-15 colon, in the experiment with IGROV1 ovarian, with MOLT-4 leukemia, in the experiment on NCI-H460 lung and in the experiment on OVCAR-5 ovarian was more than 12.5 µM in each case. Besides, the TGI in the experiment on SK-OV-3 ovarian is 0.0107 µM; with SW-620 colon, more than 12.5 µM.

`Clc1ccc(CCN[C@H]2CCCC[C@H]2N2CCCC2)cc1Cl`: the TGI was 40.5 µM with A498 renal; 49.5 µM in the experiment on HCT-15 colon; 35.1 µM with IGROV1 ovarian; 30.3 µM with MALME-3M melanoma; more than 100 µM with MOLT-4 leukemia; 58.4 µM in the experiment with NCI-H460 lung. The TGI was 78.1 µM in the experiment with OVCAR-5 ovarian, 44.1 µM in the experiment on SK-MEL-2 melanoma, 78.2 µM in the experiment with SK-OV-3 ovarian and more than 100 µM in the experiment with SW-620 colon.

On to `CCC(C)[C@@H](Nc1c(O)c2c(c(O)c1Cl)C(=O)C=CC2=O)C(=O)OC` (some centres not stated), for which the TGI in the experiment with HCT-15 colon is more than 10 µM; in the experiment with HOP-92 NSCLC it was more than 10 µM; in the experiment with IGROV1 ovarian, more than 10 µM; with MALME-3M melanoma, 5.14 µM; with MOLT-4 leukemia, 5.94 µM; in the experiment on NCI-H460 lung, more than 10 µM. Further, the TGI in the experiment on OVCAR-5 ovarian, with SK-MEL-2 melanoma, in the experiment on SK-OV-3 ovarian and with SW-620 colon was more than 10 µM in each case.

With `S=c1ncc2c([nH]1)C1c3ccccc3C2c2ccccc21`, the TGI in the experiment with HCT-15 colon, in the experiment with IGROV1 ovarian, in the experiment on MALME-3M melanoma, in the experiment on MOLT-4 leukemia, in the experiment with NCI-H460 lung and in the experiment on OVCAR-5 ovarian was more than 100 µM each time. Besides, the TGI in the experiment on RXF 393 renal, in the experiment with SK-MEL-2 melanoma and in the experiment on SW-620 colon was more than 100 µM throughout.

With `CC(=O)c1ccc2c(c1)CC1(C2)Cc2cc3c(c(C(=O)O)c2C1)CCC3` (configuration not stated), the TGI with A498 renal, with HCT-15 colon, with HOP-92 NSCLC, with IGROV1 ovarian, in the experiment on MALME-3M melanoma and in the experiment on MOLT-4 leukemia was more than 100 µM each time. Besides, the TGI in the experiment on NCI-H460 lung, with OVCAR-5 ovarian, with RXF 393 renal, in the experiment with SK-OV-3 ovarian and in the experiment with SW-620 colon was more than 100 µM in each case.

As to `CCOC(=O)c1c(NC(=S)Nc2ccc(Cl)cc2)sc2c1CCN(C)C2`, the TGI in the experiment on A498 renal, with HCT-15 colon, in the experiment with IGROV1 ovarian, in the experiment with MOLT-4 leukemia, with NCI-H460 lung and in the experiment with OVCAR-5 ovarian was more than 100 µM each time. Also, the TGI in the experiment with RXF 393 renal and in the experiment with SK-MEL-2 melanoma was more than 100 µM throughout.

Turning to `Nc1ncnc2c1ncn2C1CCC(CP(=O)(O)O)C1` (configuration not stated), the TGI with HCT-15 colon, with IGROV1 ovarian, in the experiment on MALME-3M melanoma, in the experiment on NCI-H460 lung, in the experiment on OVCAR-5 ovarian and in the experiment with RXF 393 renal was more than 100 µM in each case. Besides, the TGI in the experiment on SK-MEL-2 melanoma, in the experiment with SK-OV-3 ovarian and in the experiment on SW-620 colon was more than 100 µM in each case.

Take `COc1c(C(=O)NCCN(CCNC(=O)c2cccc(-c3cccc(C(=O)N(C)C)c3OC)c2OC)CCNC(=O)c2cccc(-c3cccc(C(=O)N(C)C)c3OC)c2OC)cccc1-c1cccc(C(=O)N(C)C)c1OC`: the TGI in the experiment with HCT-15 colon was more than 100 µM; with HOP-92 NSCLC, 46.2 µM; with IGROV1 ovarian, more than 100 µM; in the experiment with MALME-3M melanoma, 39.6 µM; in the experiment with MOLT-4 leukemia, 72.4 µM; in the experiment with NCI-H460 lung it was more than 100 µM. Further, the TGI was more than 100 µM with OVCAR-5 ovarian, 63 µM with RXF 393 renal, more than 100 µM in the experiment on SK-OV-3 ovarian and more than 100 µM in the experiment with SW-620 colon.

`COC(=O)CCNC(=O)OCc1ccccc1`: the TGI with A498 renal, in the experiment on HCT-15 colon, with IGROV1 ovarian, with MALME-3M melanoma, with MOLT-4 leukemia and in the experiment with NCI-H460 lung was more than 100 µM in each case. Moreover, the TGI in the experiment on OVCAR-5 ovarian, in the experiment with SK-MEL-2 melanoma, in the experiment on SK-OV-3 ovarian and in the experiment on SW-620 colon was more than 100 µM in each case.

For the molecule `CCOP(=O)(OCC)C(NC(=O)C(C(F)(F)F)C(F)(F)F)c1ccccc1` (configuration not stated), the TGI with HCT-15 colon, in the experiment with HOP-92 NSCLC, in the experiment with IGROV1 ovarian, in the experiment with MALME-3M melanoma, with MOLT-4 leukemia and with NCI-H460 lung was more than 100 µM each time. Moreover, the TGI with OVCAR-5 ovarian, in the experiment with RXF 393 renal, with SK-MEL-2 melanoma, in the experiment on SK-OV-3 ovarian and with SW-620 colon was more than 100 µM each time.

In the case of `COC(=O)c1cc(NC(=O)Cc2c[nH]c3ccccc23)cn1C`, the TGI in the experiment with A498 renal, in the experiment with HCT-15 colon, in the experiment on IGROV1 ovarian, in the experiment on MALME-3M melanoma, in the experiment with MOLT-4 leukemia and with NCI-H460 lung was more than 100 µM in each case. In addition, the TGI in the experiment with OVCAR-5 ovarian, in the experiment with RXF 393 renal, with SK-MEL-2 melanoma, in the experiment with SK-OV-3 ovarian and in the experiment with SW-620 colon was more than 100 µM throughout.
